Laboratory results published in patent publication US6737383B1, “Herbicidal oxadiazolidines” (priority 1999, dated 2004).

Legend:
[1] = tested on: rape; assay: Test B pre/postemergence rape; type: in vivo, Brassica napus
Summary of the method: (§1)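 Herbicidal effect was estimated by eye on a ten-point control scale after plants spent twelve to sixteen days in a greenhouse following soil or foliar treatment. Foliar sprays targeted plants at one to four leaves; all doses were formulated in a non-phytotoxic solvent with surfactant.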

[2] = tested on: giant foxtail; assay: Test B pre/postemergence giant foxtail; type: in vivo, Setaria faberii
Summary of the method: as §1

[3] = tested on: blackgrass; assay: Test B pre/postemergence blackgrass; type: in vivo, Alopecurus myosuroides
Summary of the method: as §1

[4] = tested on: surinam grass; assay: Test B pre/postemergence surinam grass; type: in vivo, Brachiaria decumbens
Summary of the method: as §1

[5] = tested on: smallflower flatsedge; assay: Test B flood test smallflower flatsedge; type: in vivo, Cyperus difformis
Summary of the method: (§2)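 Plants were grown to the 2-leaf stage before treatment with test chemical, then held in a greenhouse for twelve to sixteen days. Injury was visually rated against untreated controls on a 0–10 scale, where 0 is no effect and 10 is complete control.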

[6] = tested on: morningglory; assay: Test B pre/postemergence morningglory; type: in vivo, Ipomoea hederacea
Summary of the method: as §1

[7] = tested on: wild oat; assay: Test B pre/postemergence wild oat; type: in vivo, Avena fatua
Summary of the method: as §1

[8] = tested on: pigweed; assay: Test B pre/postemergence pigweed; type: in vivo, Amaranthus retroflexus
Summary of the method: as §1

[9] = tested on: cocklebur; assay: Test B pre/postemergence cocklebur; type: in vivo, Xanthium strumarium
Summary of the method: as §1

[10] = tested on: corn; assay: Test B pre/postemergence corn; type: in vivo, Zea mays
Summary of the method: as §1

[11] = tested on: rice; assay: Test B flood test rice; type: in vivo, Oryza sativa
Summary of the method: as §2

[12] = tested on: bedstraw; assay: Test B pre/postemergence bedstraw; type: in vivo, Galium aparine; conditions: for Bedstraw plant response rating: Postemergence
Summary of the method: as §1

[13] = tested on: soybean; assay: Test B pre/postemergence soybean; type: in vivo, Glycine max
Summary of the method: as §1

[14] = tested on: wheat; assay: Test B pre/postemergence wheat; type: in vivo, Triticum aestivum
Summary of the method: as §1

[15] = tested on: sugar beet; assay: Test B pre/postemergence sugar beet; type: in vivo, Beta vulgaris
Summary of the method: as §1

[16] = tested on: velvetleaf; assay: Test B pre/postemergence velvetleaf; type: in vivo, Abutilon theophrasti
Summary of the method: as §1

[17] = Postemergence, Rate 125 g/ha, scale 0 to 10, 0 is no effect, 10 is complete control
[18] = Postemergence, Rate 250 g/ha, scale 0 to 10
[19] = Preemergence, Rate 62 g/ha, scale of 0 to 10 where 0 is no effect and 10 is complete control
[20] = Preemergence, Rate 125 g/ha, scale 0 to 10, 0 is no effect, 10 is complete control
[21] = Preemergence, Rate 250 g/ha, scale 0 to 10, 0 is no effect, 10 is complete control
[22] = Preemergence, Rate 500 g/ha, scale 0 to 10, 0 is no effect, 10 is complete control
[23] = Rate 62 g/ha, Postemergence, scale 0 to 10, 0 no effect, 10 complete control
[24] = Postemergence, Rate 500 g/ha, scale of 0 to 10 where 0 is no effect and 10 is complete control
[25] = Rate 62 g/ha, flood test species, Pre-emergence, visual evaluation after twelve to sixteen days
[26] = Rate 125 g/ha, under heading Pre-emergence, flood test species, visual evaluation after twelve to sixteen days
[27] = Rate 250 g/ha, Pre-emergence (flood test species), scale 0 to 10, 0 is no effect, 10 is complete control
[28] = Rate 500 g/ha, Pre-emergence, flood test species, scale 0 to 10 (0 no effect, 10 complete control)

CC(C)N(C(=O)n1oc(=O)n(Cc2cnc(Cl)s2)c1=O)c1ccc(F)cc1 [Compound 482]
Rape plant response rating [1, 17]: 0
Rape plant response rating [1, 18]: 0
Plant response rating, Rape [1, 19]: 0
Rape plant response rating [1, 20]: 0
Rape plant response rating [1, 21]: 0
Rape plant response rating [1, 22]: 0
Rape plant response rating [1, 23]: 0
Giant foxtail plant response rating [2, 17]: 0
Giant foxtail plant response rating [2, 18]: 0
Giant foxtail plant response rating [2, 24]: 2
Plant response rating, Giant foxtail [2, 19]: 1
Giant foxtail plant response rating [2, 20]: 6
Giant foxtail plant response rating [2, 21]: 8
Giant foxtail plant response rating [2, 22]: 9
Giant foxtail plant response rating [2, 23]: 0
Blackgrass plant response rating [3, 17]: 0
Blackgrass plant response rating [3, 18]: 0
Blackgrass plant response rating [3, 24]: 0
Plant response rating, Blackgrass [3, 19]: 0
Blackgrass plant response rating [3, 20]: 0
Blackgrass plant response rating [3, 21]: 0
Blackgrass plant response rating [3, 22]: 4
Blackgrass plant response rating [3, 23]: 0
B. signalgrass plant response rating [4, 17]: 0
B. signalgrass plant response rating ([4]; Postemergence, Rate 250 g/ha, scale 0 to 10, 0 no effect, 10 complete control): 0
B. signalgrass plant response rating [4, 24]: 0
Plant response rating, B. signalgrass [4, 19]: 0
B. signalgrass plant response rating [4, 20]: 0
B. signalgrass plant response rating [4, 21]: 0
B. signalgrass plant response rating [4, 22]: 0
B. signalgrass plant response rating [4, 23]: 0
Plant response rating, S. Flatsedge (0 to 10 scale, 0 is no effect, 10 is complete control) [5, 25]: 0
S. Flatsedge plant response rating (0 to 10 scale, 0 is no effect, 10 is complete control) [5, 26]: 0
S. Flatsedge plant response rating [5, 27]: 0
S. Flatsedge plant response rating [5, 28]: 0
Morningglory plant response rating [6, 17]: 7
Morningglory plant response rating [6, 18]: 8
Plant response rating, Morningglory [6, 19]: 0
Morningglory plant response rating [6, 20]: 0
Morningglory plant response rating [6, 21]: 0
Morningglory plant response rating [6, 22]: 0
Morningglory plant response rating [6, 23]: 5
Wild oats plant response rating [7, 17]: 0
Wild oats plant response rating [7, 18]: 0
Plant response rating, Wild oats [7, 19]: 0
Wild oats plant response rating [7, 20]: 0
Wild oats plant response rating [7, 21]: 0
Wild oats plant response rating [7, 22]: 3
Wild oats plant response rating [7, 23]: 0
Redroot pigweed plant response rating [8, 17]: 0
Redroot pigweed plant response rating [8, 18]: 2
Plant response rating, Redroot pigweed [8, 19]: 0
Redroot pigweed plant response rating [8, 20]: 0
Redroot pigweed plant response rating [8, 21]: 0
Redroot pigweed plant response rating [8, 22]: 0
Redroot pigweed plant response rating [8, 23]: 0
Cocklebur plant response rating [9, 17]: 0
Cocklebur plant response rating [9, 18]: 0
Cocklebur plant response rating [9, 24]: 0
Plant response rating, Cocklebur [9, 19]: 0
Cocklebur plant response rating [9, 20]: 0
Cocklebur plant response rating [9, 21]: 0
Cocklebur plant response rating [9, 22]: 0
Cocklebur plant response rating [9, 23]: 0
Corn plant response rating [10, 17]: 0
Corn plant response rating [10, 18]: 0
Corn plant response rating [10, 24]: 0
Plant response rating, Corn [10, 19]: 0
Corn plant response rating [10, 20]: 0
Corn plant response rating [10, 21]: 0
Corn plant response rating [10, 22]: 0
Corn plant response rating [10, 23]: 0
Plant response rating, Rice (0 to 10 scale, 0 is no effect, 10 is complete control) [11, 25]: 0
Rice plant response rating (0 to 10 scale, 0 is no effect, 10 is complete control) [11, 26]: 0
Rice plant response rating [11, 27]: 0
Rice plant response rating [11, 28]: 0
Bedstraw plant response rating ([12]; Rate 125 g/ha, scale 0 to 10, 0 is no effect, 10 is complete control): 0
Bedstraw plant response rating ([12]; Rate 250 g/ha, scale 0 to 10): 0
Plant response rating, Bedstraw [12, 19]: 0
Bedstraw plant response rating ([12]; Rate 62 g/ha, scale 0 to 10, 0 no effect, 10 complete control): 0
Soybean plant response rating [13, 17]: 1
Soybean plant response rating [13, 18]: 1
Plant response rating, Soybean [13, 19]: 0
Soybean plant response rating [13, 20]: 0
Soybean plant response rating [13, 21]: 0
Soybean plant response rating [13, 22]: 0
Soybean plant response rating [13, 23]: 1
Wheat plant response rating [14, 17]: 0
Wheat plant response rating [14, 18]: 0
Plant response rating, Wheat [14, 19]: 0
Wheat plant response rating [14, 20]: 0
Wheat plant response rating [14, 21]: 0
Wheat plant response rating [14, 22]: 0
Wheat plant response rating [14, 23]: 0
Sugarbeets plant response rating [15, 17]: 0
Sugarbeets plant response rating [15, 18]: 0
Plant response rating, Sugarbeets [15, 19]: 0
Sugarbeets plant response rating [15, 20]: 0
Sugarbeets plant response rating [15, 21]: 0
Sugarbeets plant response rating [15, 22]: 0
Sugarbeets plant response rating [15, 23]: 0
Velvetleaf plant response rating [16, 17]: 0
Velvetleaf plant response rating [16, 18]: 0
Plant response rating, Velvetleaf [16, 19]: 0
Velvetleaf plant response rating [16, 20]: 0
Velvetleaf plant response rating [16, 21]: 0
Velvetleaf plant response rating [16, 22]: 2
Velvetleaf plant response rating [16, 23]: 0
